Results on 13 compounds are retold here after PubChem BioAssay (NCI).

Structures are written as SMILES.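 How tested: cells in 96-well plates exposed to compound for 48 hours at five concentrations. GI50 is the concentration that inhibits growth by half. At the TGI there is no net growth.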 A value given as a limit tells only on which side of the number the result lay.

Some test systems named below: EKVX NSCLC; HCC-2998 colon; HOP-92 NSCLC; LOX IMVI melanoma; MCF7 breast; NCI-H460 lung; SK-MEL-2 melanoma; SNB-75 CNS.
Holding throughout (assay): DTP human tumour cell line panel, 48 h

Consider `Cc1ccccc1NC(=O)N/C(N)=N/c1nc(C)c(C)s1`, for which the GI50 with EKVX NSCLC was 0.542 µM; in the test on HCC-2998 colon, 0.712 µM; in the test on HOP-92 NSCLC it was 30 µM; in the test on LOX IMVI melanoma it was 0.444 µM; with MCF7 breast it was 0.142 µM; with NCI-H460 lung, 0.376 µM. For the same compound, the GI50 with SK-MEL-2 melanoma was 0.61 µM; in the test on SNB-75 CNS it was 0.175 µM. Moreover, the TGI in the test on EKVX NSCLC, in the test on HCC-2998 colon, with HOP-92 NSCLC, in the test with LOX IMVI melanoma, in the test on MCF7 breast and with NCI-H460 lung was over 100 µM in each case. Moreover, the TGI with SK-MEL-2 melanoma was over 100 µM; with SNB-75 CNS, 0.754 µM.

As for `Nc1nc2ccccc2c2[nH]c3ccccc3c12`, the GI50 in the test on EKVX NSCLC was 3.19 µM; with LOX IMVI melanoma, 1.05 µM; with MCF7 breast, 1.19 µM; in the test on SK-MEL-2 melanoma it was 1.54 µM; with SNB-75 CNS, 5.49 µM. Also, the TGI was 11.6 µM with EKVX NSCLC; 2.28 µM with LOX IMVI melanoma; 2.55 µM in the test on MCF7 breast; 2.88 µM in the test with SK-MEL-2 melanoma; 16.4 µM in the test with SNB-75 CNS.

For `CC1=CC[C@@H]2[C@@H](CC[C@@]2(C)O)C(C)(C)[C@H]1CC[C@@H]1[C@@]2(C)CC[C@@H](O)C(C)(C)O[C@@H]2CC[C@]1(C)O`, the TGI was 33.4 µM in the test with HCC-2998 colon; 37.1 µM with HOP-92 NSCLC; 29.8 µM with LOX IMVI melanoma; over 100 µM in the test on MCF7 breast; 34.8 µM with NCI-H460 lung; over 100 µM with SK-MEL-2 melanoma.

Consider `Nc1ncnc2c1ncn2C1OC(CO)CC1O` (stereo not given), for which the TGI is over 100 µM in the test with EKVX NSCLC; 43.7 µM in the test with HCC-2998 colon; over 100 µM in the test with HOP-92 NSCLC; 70.8 µM in the test with LOX IMVI melanoma; over 100 µM with SNB-75 CNS.

As to `CN(Cc1ccccc1)c1ncnc2ccc(Br)cc12`, the GI50 in the test with HCC-2998 colon is 11.9 µM; in the test on HOP-92 NSCLC it was 7.16 µM; in the test with LOX IMVI melanoma, 14.7 µM; with MCF7 breast it was 26.4 µM; with NCI-H460 lung, 10.3 µM; in the test on SK-MEL-2 melanoma it was 35.7 µM. Also, the total growth inhibition concentration (TGI) in the test on HCC-2998 colon was 26.3 µM; in the test on HOP-92 NSCLC, 25.8 µM; in the test on LOX IMVI melanoma, 29.2 µM; in the test with MCF7 breast, over 100 µM; with NCI-H460 lung it was 26 µM; with SK-MEL-2 melanoma, over 100 µM.

On to `S=P(C1CCCCC1)(C1CCCCC1)C(c1cccnc1)N1CCCC1` (stereo not given), for which the TGI is 41.7 µM in the test with EKVX NSCLC; 42.7 µM in the test on HOP-92 NSCLC; 23.6 µM in the test with LOX IMVI melanoma; over 100 µM in the test on MCF7 breast; 50.7 µM with NCI-H460 lung; 48.7 µM in the test with SK-MEL-2 melanoma. The compound also came in with a TGI in the test on SNB-75 CNS of 35.4 µM.

In the case of `O=C1c2cccc3c([N+](=O)[O-])ccc(c23)C(=O)N1CCCCl`, the GI50 in the test with HCC-2998 colon was 5.85 µM; in the test with HOP-92 NSCLC, over 10 µM; with LOX IMVI melanoma it was 1.47 µM; in the test with MCF7 breast, 3.03 µM; in the test on NCI-H460 lung, 5.55 µM; in the test with SK-MEL-2 melanoma it was over 10 µM. Moreover, in the test on SNB-75 CNS, the GI50 was 2.86 µM. Further, the TGI with HCC-2998 colon was over 10 µM; in the test on HOP-92 NSCLC it was over 10 µM; in the test with LOX IMVI melanoma it was 2.96 µM; in the test with MCF7 breast it was over 10 µM; in the test with NCI-H460 lung, over 10 µM; in the test with SK-MEL-2 melanoma it was over 10 µM. Also, in the test with SNB-75 CNS, the TGI was over 10 µM.

With `O=C1/C(=N/N=C(c2ccccc2)c2ccccc2)c2ccccc2-c2ccccc21`, the TGI in the test on EKVX NSCLC is over 100 µM; with HOP-92 NSCLC it was 87.8 µM; with LOX IMVI melanoma it was over 100 µM; with MCF7 breast, over 100 µM; with NCI-H460 lung, over 100 µM; in the test on SK-MEL-2 melanoma it was over 100 µM. In the test on SNB-75 CNS, this compound came in with a TGI of over 100 µM.

For the compound `Cc1cc(NCCCNc2ccnc3cc(Cl)ccc23)nc(Nc2ccc(C(=O)N3CCCCC3)cc2)n1`, the GI50 is 3.65 µM in the test on EKVX NSCLC; 2.47 µM in the test with HCC-2998 colon; 1.82 µM in the test on LOX IMVI melanoma; 1.82 µM in the test with MCF7 breast; 2.7 µM in the test on NCI-H460 lung; 2.17 µM in the test on SK-MEL-2 melanoma. The GI50 in the test with SNB-75 CNS was 1.69 µM. For the same compound, the TGI with EKVX NSCLC worked out at 16 µM; with HCC-2998 colon it was 6.65 µM; in the test with LOX IMVI melanoma, 3.57 µM; in the test on MCF7 breast, 4.09 µM; in the test with NCI-H460 lung, 7.63 µM; in the test on SK-MEL-2 melanoma, 4.29 µM. Also, the TGI in the test on SNB-75 CNS is 3.69 µM.

As for `COc1ccccc1CN=C1NC(=O)/C(=C/c2ccc3ncccc3c2)S1`, the GI50 is 17.5 µM in the test on HCC-2998 colon; 6.24 µM in the test on HOP-92 NSCLC; 7.38 µM with LOX IMVI melanoma; 5.4 µM with MCF7 breast; 6.91 µM with NCI-H460 lung; 10.4 µM with SK-MEL-2 melanoma. Also, in the test with SNB-75 CNS, the GI50 is 3.9 µM. In addition, the TGI in the test with HCC-2998 colon is over 25 µM; with HOP-92 NSCLC, 22 µM; with LOX IMVI melanoma it was over 25 µM; with MCF7 breast, over 25 µM; in the test with NCI-H460 lung it was over 25 µM; in the test with SK-MEL-2 melanoma, over 25 µM. Besides, the TGI in the test on SNB-75 CNS is over 25 µM.

For the compound `COc1ccc(-c2cnc(SCC(=O)c3c(C)n(C)n(-c4ccccc4)c3=O)n2-c2ccc(OC)cc2)cc1`, the GI50 in the test on EKVX NSCLC was 29.7 µM; in the test on HCC-2998 colon, 44.9 µM; with HOP-92 NSCLC it was over 50 µM; in the test on LOX IMVI melanoma, 46.5 µM; in the test on MCF7 breast, 35.3 µM; with NCI-H460 lung, 43.6 µM. In the test on SK-MEL-2 melanoma, the GI50 is over 50 µM. Further, the TGI with EKVX NSCLC, with HCC-2998 colon, in the test on HOP-92 NSCLC, in the test on LOX IMVI melanoma, in the test on MCF7 breast and in the test with NCI-H460 lung was over 50 µM each time. In addition, the concentration for total growth inhibition (TGI) in the test with SK-MEL-2 melanoma was over 50 µM.

`Nc1c(C(=O)c2cccc(C(O)(CO)CO)c2)cnn1-c1ccc(F)cc1`: the GI50 in the test on HCC-2998 colon, in the test on HOP-92 NSCLC, in the test with LOX IMVI melanoma, with MCF7 breast, with NCI-H460 lung and with SK-MEL-2 melanoma was over 25 µM throughout. For the same compound, the GI50 with SNB-75 CNS is over 25 µM. Besides, the TGI in the test with HCC-2998 colon, in the test on HOP-92 NSCLC, with LOX IMVI melanoma, in the test on MCF7 breast, with NCI-H460 lung and with SK-MEL-2 melanoma was over 25 µM throughout. The same compound displayed a TGI in the test with SNB-75 CNS of over 25 µM.

`Cc1c(C)n(CC(O)CNC2CCCCC2C)c2ccccc12` (stereo not given): the GI50 in the test on HCC-2998 colon is 3.03 µM; in the test on HOP-92 NSCLC it was 4.76 µM; in the test with LOX IMVI melanoma it was 14.8 µM; in the test with MCF7 breast, 13.2 µM; with NCI-H460 lung, 15.7 µM; in the test with SNB-75 CNS it was 10.1 µM. Moreover, the TGI was found to be 10.5 µM in the test with HCC-2998 colon; 17.8 µM with HOP-92 NSCLC; 28 µM in the test with LOX IMVI melanoma; 28.3 µM with MCF7 breast; 31 µM with NCI-H460 lung; 21.7 µM in the test with SNB-75 CNS.

One may read the GI50 as the concentration that inhibits growth by half. Usually TGI stands for the concentration giving total growth inhibition. A low value points to greater sensitivity of the cells.
